Experiments:
Type in all cases: cell-based
[1] = system: MDA-MB-468 (Her2^−) cells; assay: Cellular uptake in mixed cell populations, flow cytometry with Her2 Ab-APC gating (Example 5); settings: 2 h, mixed cell population; for Median Fluorescence Values, second set: Her2− (MDA-MB-468), untreated 4,776; for Median Fluorescence Values, first set: MDA-MB-468 cells (Her2−), untreated 4,303
Description: (§1) The media were replaced with serum free media containing indicated concentrations of protein listed below and incubated for 2 h. Cells were washed 3×PBS, trypsinized, fixed with 4% PFA, stained with Her2 Ab-APC for 0.5 hour, washed with PBS and then analyzed by flow cytometry with detection of GFP.
(§2) The tested proteins of the first and second sets of experiments were applied to the mixed cell population for two hours.
(§3) The above data were also plotted in FIGS. 13A-13H to show the median fluorescence value minus background fluorescence of untreated cells (background adjusted fluorescence) (Y-axis) as a function of concentration (X-axis) for each of the tested proteins in this Example. Cellular uptake of the proteins was measured by GFP fluorescence. Her2 expression level was measured by using a Her2 antibody conjugated with allophycocyanin (APC). Gating was applied to the flow cytometry data to identify Her2^low versus Her2^high populations. […] The Her2^− profiles (diamond) are indicative of the profile of charged GFP alone. The Her2^− profiles (square) are indicative of the profile of the charged GFP in combination with the target-binding region—C6.5 scFv. The data of sfGFP-C6.5 on the Her2^high cells reflects the profile of the target-binding region (C6.5) by itself.

AU565 (Her2^+) cells [2] = assay: as above; settings: 2 h, mixed cell population; for Median Fluorescence Values, second set: Her2+ (AU565), untreated 11,162; for Median Fluorescence Values, first set: AU565 cells (Her2+), untreated 6,875
Description: as §1, §2, §3

[3] = system: MDA-MB-468 (Her2^−) cells; assay: Time course of cellular uptake in mixed cell populations, flow cytometry (Example 6); settings: Her2− (MDA-MB-468), 0.1 μM, untreated 4,134
Description: (§4) The media were replaced with serum free media containing 0.1 μM of protein listed below and incubated for 10 minutes, 30 minutes or 4 hours. Cells were washed 3×PBS, trypsinized, stained with Her2 Antibody-APC for 0.5 hours, washed with PBS and then analyzed by flow cytometry with detection of GFP.

AU565 (Her2^+) cells [4] = assay: as above; settings: 0.1 μM, untreated 6,081
Description: as §4

[5] = system: MDA-MB-468 (Her2^−) cells; assay: Internalization of GFP proteins by flow cytometry (Example 4); settings: 1 μM protein, 2 hours, serum free media, untreated cells 4,064
Description: MDA-MB-468 cells express an insignificant level of Her2 compared to unstained background and are considered Her2 negative (referred to as Her2), whereas AU565 cells express a high level of Her2 (referred to as Her2^+).
The media were replaced with serum free media containing 1 μM of a protein listed below, and incubated for 2 hours. Cells were washed 3×PBS, trypsinized, fixed with 4% PFA, washed with PBS and then analyzed by flow cytometry with detection of GFP.
Results: Flow cytometry analysis is indicative of the amount of protein internalized into the cells. FIGS. 9A and 9B show the flow cytometry data obtained for different tested samples at various conditions. The median fluorescence values obtained from the flow cytometry peak minus the median fluorescence values of untreated cells (background fluorescence) are shown in FIGS. 10A and 10B. See also Table 7. The first column indicates identifies the GFP-component of the construct used for the particular sample treatment. The second and third columns represents fluorescence in MDA-MB-468 cells following treatment with each of the GFP proteins alone (second column; examples of use of CPMs alone) or with each of the GFP-C6.5 fusion proteins (third column; examples of fusion proteins comprising a target-binding region and a CPM region). The fourth and fifth column fluorescence in AU565 cells following treatment with each of the GFP proteins alone (fourth column; examples of use of CPMs alone) or with each of the GFP-C6.5 fusion proteins (fifth column; examples of fusion proteins comprising a target-binding region and a CPM region).

AU565 (Her2^+) cells [6] = assay: as above; settings: 1 μM protein, 2 hours, serum free media, untreated cells 5,713
Description: The levels of Her2 expressed on cell surface were measured in flow cytometry after staining the cells with a commercial antibody against Her2, Anti-Her2-APC (BD Bioscience, catalog #340554). MDA-MB-468 cells express an insignificant level of Her2 compared to unstained background and are considered Her2 negative (referred to as Her2), whereas AU565 cells express a high level of Her2 (referred to as Her2^+).
Results: Flow cytometry analysis is indicative of the amount of protein internalized into the cells. […] The median fluorescence values obtained from the flow cytometry peak minus the median fluorescence values of untreated cells (background fluorescence) are shown in FIGS. 10A and 10B.

SKOV-3 cells (Her2^+) = assay: Cellular uptake of GFP proteins by fluorescence microscopy; settings: 1 μM of proteins, 1 hour
Description: These images were taken to assess cellular uptake of these GFP-containing proteins by fluorescence microscopy. The images shown are an overlay of phase contrast and GFP fluorescence images.
In addition, SKOV-3 cells (Her2) were treated with 1 μM of proteins for 1 hour, and then images were taken to assess cellular uptake of GFP proteins by fluorescence microscopy (FIG. 11A).

sfGFP: superfolder GFP with His6 tag, not positively charged; SEQ ID NO: 10 [reference compound]
Median Fluorescence Values, second set ([1]; 0.1 uM): 4,519
Median Fluorescence Values, second set ([1]; 0.3 uM): 5,245
Median Fluorescence Values, second set (AU565 (Her2^+) cells [2]; 0.1 uM): 10,937
Median Fluorescence Values, second set (AU565 (Her2^+) cells [2]; 0.3 uM): 12,131
Internalization over time (GFP fluorescence, flow cytometry) ([3]; 10 min): 3,887
Internalization over time (GFP fluorescence, flow cytometry) ([3]; 30 min): 4,025
Internalization over time (GFP fluorescence, flow cytometry) ([3]; 4 h): 4,067
Internalization over time (GFP fluorescence, flow cytometry) (AU565 (Her2^+) cells [4]; 10 min): 5,952
Internalization over time (GFP fluorescence, flow cytometry) (AU565 (Her2^+) cells [4]; 30 min): 6,024
Internalization over time (GFP fluorescence, flow cytometry) (AU565 (Her2^+) cells [4]; 4 h): 5,924
Median fluorescence (GFP, flow cytometry) [5]: 5,115
Median fluorescence (GFP, flow cytometry) (AU565 (Her2^+) cells [6]): 5,896

+15GFP-C6.5: fusion of +15GFP (CPM) and anti-Her2 scFv C6.5 via (S4G)6 spacer; SEQ ID NO: 14
Median Fluorescence Values, first set ([1]; 0.03 uM): 13,012
Median Fluorescence Values, first set ([1]; 0.1 uM): 36,343
Median Fluorescence Values, first set ([1]; 0.3 uM): 76,116
Median Fluorescence Values, first set ([1]; 1 uM): 155,734
Median Fluorescence Values, first set (AU565 (Her2^+) cells [2]; 0.03 uM): 37,663
Median Fluorescence Values, first set (AU565 (Her2^+) cells [2]; 0.1 uM): 74,673
Median Fluorescence Values, first set (AU565 (Her2^+) cells [2]; 0.3 uM): 128,374
Median Fluorescence Values, first set (AU565 (Her2^+) cells [2]; 1 uM): 180,065
Internalization over time (GFP fluorescence, flow cytometry) ([3]; 10 min): 10,665
Internalization over time (GFP fluorescence, flow cytometry) ([3]; 30 min): 22,262
Internalization over time (GFP fluorescence, flow cytometry) ([3]; 4 h): 144,923
Internalization over time (GFP fluorescence, flow cytometry) (AU565 (Her2^+) cells [4]; 10 min): 18,606
Internalization over time (GFP fluorescence, flow cytometry) (AU565 (Her2^+) cells [4]; 30 min): 35,981
Internalization over time (GFP fluorescence, flow cytometry) (AU565 (Her2^+) cells [4]; 4 h): 148,261
Median fluorescence (GFP, flow cytometry) [5]: 313,629
Median fluorescence (GFP, flow cytometry) (AU565 (Her2^+) cells [6]): 413,838

sfGFP-C6.5: control fusion of sfGFP and anti-Her2 scFv C6.5, not positively charged; SEQ ID NO: 13 [reference compound]
Median Fluorescence Values, second set ([1]; 0.03 uM): 4,460
Median Fluorescence Values, second set ([1]; 0.1 uM): 4,824
Median Fluorescence Values, second set ([1]; 0.3 uM): 4,947
Internalization over time (GFP fluorescence, flow cytometry) ([3]; 10 min): 4,081
Internalization over time (GFP fluorescence, flow cytometry) ([3]; 30 min): 3,986
Internalization over time (GFP fluorescence, flow cytometry) ([3]; 4 h): 4,704
Median fluorescence (GFP, flow cytometry) [5]: 5,632

C6.5-+15GFP: fusion with C6.5 N-terminal to +15GFP; SEQ ID NO: 16
Median Fluorescence Values, first set ([1]; 0.03 uM): 13,355
Median Fluorescence Values, first set ([1]; 0.1 uM): 36,070
Median Fluorescence Values, first set ([1]; 0.3 uM): 82,571
Median Fluorescence Values, first set ([1]; 1 uM): 306,260
Median Fluorescence Values, first set (AU565 (Her2^+) cells [2]; 0.03 uM): 75,821
Median Fluorescence Values, first set (AU565 (Her2^+) cells [2]; 0.1 uM): 162,337
Median Fluorescence Values, first set (AU565 (Her2^+) cells [2]; 0.3 uM): 305,944
Median Fluorescence Values, first set (AU565 (Her2^+) cells [2]; 1 uM): 822,351
Internalization over time (GFP fluorescence, flow cytometry) ([3]; 10 min): 13,517
Internalization over time (GFP fluorescence, flow cytometry) ([3]; 30 min): 17,194
Internalization over time (GFP fluorescence, flow cytometry) ([3]; 4 h): 96,599
Internalization over time (GFP fluorescence, flow cytometry) (AU565 (Her2^+) cells [4]; 10 min): 37,044
Internalization over time (GFP fluorescence, flow cytometry) (AU565 (Her2^+) cells [4]; 30 min): 61,007
Internalization over time (GFP fluorescence, flow cytometry) (AU565 (Her2^+) cells [4]; 4 h): 184,844
binding and cellular uptake by fluorescence microscopy (SKOV-3 cells (Her2^+)): internalized efficiently in the cells
Median fluorescence (GFP, flow cytometry) [5]: 767,627
Median fluorescence (GFP, flow cytometry) (AU565 (Her2^+) cells [6]): 2,170,916

B1: +2GFP-C6.5: fusion of +2GFP and C6.5; a or b variant not stated (protein)
scFv: QVQLLQSGAELKKPGESLKISCKGSGYSFTSYWIAWVRQMPGKGLEYMGLIYPGDSDTKYSPSFQGQVTISVDKSVSTAYLQWSSLKPSDSAVYFCARHDVGYCSSSNCAKWPEYFQHWGQGTLVTVSSGGGGSGGGGSGGGGSQSVLTQPPSVSAAPGQKVTISCSGSSSNIGNNYVSWYQQLPGTAPKLLIYGHTNRPAGVPDRFSGSKSGTSASLAISGFRSEDEADYYCAAWDDSLSGWVFGGGTKLTVLGGHGHHHHHH
modifications: left off: large carriers; small tags and cut ends
binding and cellular uptake by fluorescence microscopy (SKOV-3 cells (Her2^+)): bound to SKOV-3 cells through Her2 but did not internalize in the cells

From patent US20160031985A1, “CHARGE-ENGINEERED ANTIBODIES OR COMPOSITIONS OF PENETRATION-ENHANCED TARGETING PROTEINS AND METHODS OF USE” (PERMEON BIOLOGICS, INC., priority 2013, published 2016)
